{"source": "patent US20110166066A1", "about": "“CATESTATIN (CST) AND ITS VARIANTS FOR TREATMENT OF CARDIOVASCULAR AND METABOLIC DISORDERS” (priority 2008, published 2011)", "tested_on": "Langendorff perfused rat heart", "assay": "Isoproterenol stimulated Langendorff heart preparations", "description": "Isoproterenol stimulated preparations—Cardiac preparations were stabilized for 20 min with KHs and then perfused with 5 nM ISO for 10 min. ISO was washed-out with KHs. After returning to control conditions, each heart was perfused with KHs containing a single concentration of WT-Cts […] or G364S-Cts (200 nM) with 5 nM ISO for a further 10 min.\nTo further describe the antagonistic action of either WT-Cts (33 nM), P370L-Cts (110 nM) or G364S-Cts (200 nM) against ISO-dependent stimulation, dose-response curves were generated by perfusing the heart preparations with KHs enriched with increasing concentrations of ISO (0.1 nM to 1 μM) alone. These curves were then compared to those obtained by exposing other cardiac preparations to the same perfusion medium containing increasing concentrations of ISO (0.1 nM to 1 μM) plus a single concentration of either WT-Cts (33 nM) or P370L-Cts (110 nM) or G364S-Cts (200 nM).\nStatistics—Data are expressed as the mean±SEM. Curve fitting was accomplished in the program Kaleidagraph (Synergy Software, Reading, Pa.). Peptide EC50 and IC50 values were interpolated as the concentration that achieved 50% stimulation and inhibition, respectively. For analysis of phosphorylated proteins, levels were quantified using Bio-Rad QuantifyOne and volumes of phosphorylated proteins were divided by the levels of non-phosphorylated proteins to calculate fold activation. Stimulation of protein activity was expressed as fold increase over vehicle-treated control. The means and S.E.M. were calculated for each treatment. Multiple comparisons were made using either one-way ANOVA followed by Bonferroni's post-hoc test or two-way ANOVA. Statistical significance was concluded at p<0.05. Statistics were computed with the program InStat (GraphPad Software, Inc., San Diego, Calif.).\nTo characterize the inhibitory action of either WT-CST (11, 33 or 110 nM), G364S-CST (200 nM) or P370L-CST (110 nM) toward ISO-dependent stimulation of cardiac function, heart preparations were perfused with KHs containing increasing concentrations of ISO (0.1 nM to 1 μM) either alone or in combination with one of the three CST variants.", "note": "No end group written: not given here.", "data": [{"sequence": "SSMKLSFRARAYGFRGPGPQL [WT-CST, catestatin]", "values": [{"measurement": "Type of antagonism against ISO", "value": "non-competitive type of antagonism"}, {"measurement": "Block of ISO-dependent +(LVdP/dT)max", "setting": "ISO 5 nM", "value": "~90", "unit": "%"}, {"measurement": "ISO induced coronary dilation", "setting": "ISO 5 nM", "value": "blocked"}, {"measurement": "ISO-induced positive lusitropism", "setting": "ISO 5 nM", "value": "blocked"}, {"measurement": "Rank order of potency against ISO", "setting": "ISO 5 nM", "value": "Order of potency: WT-CST > G364S-CST > P370L-CST"}, {"measurement": "ISO stimulatory effect on LVP", "setting": "ISO 5 nM, measured at 5 min", "value": "abolished"}, {"measurement": "Coronary pressure (ISO alone or ISO + peptide)", "setting": "Table 3, ISO 5 nM", "value": "Abolished"}, {"measurement": "Inotropism (ISO alone or ISO + peptide)", "setting": "Table 3, ISO 5 nM", "value": "Abolished"}, {"measurement": "Lusitropism (ISO alone or ISO + peptide)", "setting": "Table 3, ISO 5 nM", "value": "Abolished"}]}]}
